The assay concerns the target T1, Human Polθ polymerase domain (aa1820-2590) (Homo sapiens, UniProt O75417).
T1 construct: Human Polθ polymerase domain (aa1820-2590) was expressed in E. coli; made in house; host or cells: E. coli
T1 sequence (O75417 1820-2590): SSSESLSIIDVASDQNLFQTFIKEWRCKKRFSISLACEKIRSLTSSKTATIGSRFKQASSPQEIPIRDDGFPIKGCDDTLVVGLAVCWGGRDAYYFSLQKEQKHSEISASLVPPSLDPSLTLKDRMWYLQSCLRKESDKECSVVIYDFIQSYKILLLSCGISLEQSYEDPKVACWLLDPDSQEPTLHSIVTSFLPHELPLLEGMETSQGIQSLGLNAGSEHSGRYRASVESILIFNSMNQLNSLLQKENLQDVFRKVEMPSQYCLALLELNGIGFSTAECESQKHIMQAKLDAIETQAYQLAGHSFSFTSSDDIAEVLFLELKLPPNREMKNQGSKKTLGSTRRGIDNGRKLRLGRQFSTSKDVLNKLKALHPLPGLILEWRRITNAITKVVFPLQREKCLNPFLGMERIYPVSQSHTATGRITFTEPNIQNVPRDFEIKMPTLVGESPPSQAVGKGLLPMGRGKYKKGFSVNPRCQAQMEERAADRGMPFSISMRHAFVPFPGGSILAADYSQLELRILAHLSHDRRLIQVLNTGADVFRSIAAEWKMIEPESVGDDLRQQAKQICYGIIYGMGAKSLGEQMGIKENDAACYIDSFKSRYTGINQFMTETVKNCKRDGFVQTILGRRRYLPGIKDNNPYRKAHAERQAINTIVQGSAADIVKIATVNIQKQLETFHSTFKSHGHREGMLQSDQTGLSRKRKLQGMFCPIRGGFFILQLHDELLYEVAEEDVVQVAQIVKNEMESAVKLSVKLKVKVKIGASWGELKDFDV
In words: Polθ Polymerase Domain Kinact/KI Assay (PicoGreen). It counts as biochemical. To be noted: 0.8 nM Polθ, 100 nM DNA substrate, kobs vs [I] fit for 2-step covalent inhibitor. In outline:
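Kinact and KI derive from fitting kobs versus [I], where kobs were fitted from EDTA-stopped PicoGreen time courses (up to 60 min) in Tris pH 7.5 buffer with 1% DMSO, 0.8 nM enzyme, 100 nM DNA and […].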

Regarding `C=C(CN(C)C)C(=O)N1CC(CC(F)CCN2C[C@H]3CC(=O)N(c4cc(C(F)(F)F)cc(C)n4)[C@@H]3C(=O)N(C)c3cccc(Cl)c32)C1` (stereo partly drawn) [Example 301, (3aR,11aS)-6-chloro-5-(4-(1-(2-((dimethylamino)methyl)acryloyl)azetidin-3-yl)-3-fluorobutyl)-10-methyl-1-(6-methyl-4-(trifluoromethyl)pyridin-2-yl)-1,3a,4,5,10,11a-hexahydro-2H-benzo[b]pyrrolo[2,3-f][1,4]diazocine-2,11(3H)-dione], the Kinact/Kl was 1.78e+06 M⁻¹ s⁻¹.
`COc1cc(CN2C[C@H]3CC(=O)N(c4cc(C(F)(F)F)cc(C)n4)[C@@H]3C(=O)N(C)c3cccc(C)c32)ccc1NC(=O)/C=C/CN(C)C` [Example 208, (E)-N-(4-(((3aR, 11aS)-6,10-dimethyl-1-(6-methyl-4-(trifluoromethyl)pyridin-2-yl)-2,11-dioxo-1,2,3,3a,4,10,11,11a-octahydro-5H-benzo[b]pyrrolo [2,3-f][1,4]diazocin-5-yl)methyl)-2-methoxyphenyl)-4-(dimethylamino) but-2-enamide] had a Kinact/Kl of 4.36e+06 M⁻¹ s⁻¹.
In turn, `C=C(C)C(=O)N1CC(OCCCN2C[C@H]3CC(=O)N(c4cc(C(F)(F)F)cc(C)n4)[C@@H]3C(=O)N(C)c3cccc(Cl)c32)C1` [Example 165, (3aR,11aS)-6-chloro-5-(3-((1-methacryloylazetidin-3-yl)oxy)propyl)-10-methyl-1-(6-methyl-4-(trifluoromethyl)pyridin-2-yl)-1,3a,4,5,10,11a-hexahydro-2H-benzo[b]pyrrolo[2,3-f][1,4]diazocine-2,11(3H)-dione] had a Kinact/Kl of 1.18e+06 M⁻¹ s⁻¹.
In the case of `C=CC(=O)N1Cc2nc(CN3C[C@H]4CC(=O)N(c5cc(C(F)(F)F)cc(C)n5)[C@@H]4C(=O)N(C)c4cccc(C)c43)ccc2[C@H]1CC#N` (racemic) [Example 319a, 2-((S/R)-6-acryloyl-2-(((3aR,11aS)-6,10-dimethyl-1-(6-meth-yl-4-(trifluorometh-yl)pyridin-2-yl)-2,11-dioxo-1,2,3,3a,4,10,11,11a-octahydro-5H-benzo [b]pyrrolo[2,3-][1,4]diazocin-5-yl)meth-yl)-6,7-dihydro-5H-pyrrolo[3,4-b]pyr-idin-5-yl)acetonitrile] it was 2.17e+06 M⁻¹ s⁻¹.
As to `C=CC(=O)N1CC(N2CC[C@@H](CN3C[C@H]4CC(=O)N(c5cc(C(F)(F)F)cc(C)n5)[C@@H]4C(=O)N(C)c4cccc(Cl)c43)[C@H](C#N)C2)C1` (single isomer, unassigned) [Example 226a], the Kinact/Kl worked out at 230000 M⁻¹ s⁻¹.
With `C=CC(=O)N1Cc2cc(CN3C[C@H]4CC(=O)N(c5cc(C(F)(F)F)cc(C)n5)[C@@H]4C(=O)N(C)c4cccc(Cl)c43)ccc2[C@@H]1CC#N` (racemic) [Example 287a, 2-((S/R)-2-acryloyl-5-(((3aR,11aS)-6-chloro-10-methyl-1-(6-methyl-4-(trifluoromethyl)pyridin-2-yl)-2,11-dioxo-1,2,3,3a,4,10,11,11a-octahydro-5H-benzo[b]pyrrolo[2,3-f][1,4]diazocin-5-yl)methyl)isoindolin-1-yl)acetonitrile], the Kinact/Kl was found to be 930000 M⁻¹ s⁻¹.
`Cc1cc(C(F)(F)F)cc(N2C(=O)C[C@@H]3CN(Cc4ccn(C5CN(C(=O)/C=C/CN(C)C)C5)n4)c4c(F)cccc4N(C)C(=O)[C@H]32)n1` [Example 145, (3aR, 11aS)-5-((1-(1-((E)-4-(dimethylamino)but-2-enoyl)azetidin-3-yl)-1H-pyrazol-3-yl)methyl)-6-fluoro-10-methyl-1-(6-methyl-4-(trifluoromethyl)pyridin-2-yl)-1,3a,4,5,10,11a-hexahydro-2H-benzo[b]pyrrolo[2,3-f][1,4]diazocine-2,11(3H)-dione] returned a Kinact/Kl of 1.34e+06 M⁻¹ s⁻¹.
`C=CC(=O)N1Cc2nc(CN3C[C@H]4CC(=O)N(c5cc(C(F)(F)F)cc(C)n5)[C@@H]4C(=O)N(C)c4cccc(Cl)c43)n(C)c2C1` [Example 242, (3aR,11aS)-5-((5-acryloyl-1-methyl-1,4,5,6-tetrahydropyrrolo[3,4-d]imidazol-2-yl)methyl)-6-chloro-10-methyl-1-(6-methyl-4-(trifluoromethyl)pyridin-2-yl)-1,3a,4,5,10,11a-hexahydro-2H-benzo[b]pyrrolo[2,3-f][1,4]diazocine-2,11(3H)-dione] displayed a Kinact/Kl of 660000 M⁻¹ s⁻¹.
`C=C(CN(C)C)C(=O)N1CC(OCCCN2C[C@H]3CC(=O)N(c4cc(C(F)(F)F)cc(C)n4)[C@@H]3C(=O)Nc3cccc(C)c32)C1` [Example 191, (3aR,11aS)-5-(3-((1-(2-((dimethyl-amino)methyl)-acryloyl)azetidin-3-yl)oxy)propyl)-6-methyl-1-(6-methyl-4-(trifluoro-methyl)pyridin-2-yl)-1,3a,4,5,10, 11a-hexahydro-2H-benzo[b]pyr-rolo[2,3-f][1,4] diazocine-2, 11(3H)-dione] showed a Kinact/Kl of 1.4e+06 M⁻¹ s⁻¹.
In the case of `C=CC(=O)N1Cc2ccc(CN3C[C@H]4CC(=O)N(c5cc(C(F)(F)F)cc(C)n5)[C@@H]4C(=O)N(C)c4cccc(C)c43)cc2C1` [Example 313, (3aR,11aS)-5-((2-acryloylisoindolin-5-yl)methyl)-6,10-dimethyl-1-(6-meth-yl-4-(trifluorometh-yl)pyridin-2-yl)-1,3a,4,5,10,11a-hexahydro-2H-benzo [b]pyrrolo[2,3-f] [1,4]diazocine-2,11(3H)-dione] it was 660000 M⁻¹ s⁻¹; in that of `C=C(CN(C)C)C(=O)N[C@@H]1CCn2cc(CN3C[C@H]4CC(=O)N(c5cc(C(F)(F)F)cc(C)n5)[C@@H]4C(=O)N(C)c4cccc(C)c43)nc2C1` (racemic) [Example 330b, N-((R/S)-2-(((3aR, 11aS)-6,10-dimethyl-1-(6-methyl-4-(trifluoromethyl)pyr-idin-2-yl)-2,11-dioxo-1,2,3,3a,4,10,11,11a-octahydro-5H-benzo [b]pyrrolo[2,3-f][1,4]diazocin-5-yl)meth-yl)-5,6,7,8-tetrahydro-imidazo[1,2-a]pyridin-7-yl)-2-((dimethyl-amino)methyl)acryl-amide], 1.15e+06 M⁻¹ s⁻¹.
Molecule `Cc1cc(C(F)(F)F)cc(N2C(=O)C[C@@H]3CN(Cc4ccc5c(c4)CN(C(=O)/C=C/CN(C)C)[C@H]5CC#N)c4c(Cl)cccc4N(C)C(=O)[C@H]32)n1` (racemic) [Example 310a, 2-((S/R)-5-(((3aR,11aS)-6-chloro-10-methyl-1-(6-methyl-4-(trifluoromethyl)pyridin-2-yl)-2,11-dioxo-1,2,3,3a,4,10,11,11a-octahydro-5H-benzo[b]pyrrolo[2,3-f][1,4]diazocin-5-yl)methyl)-2-((E)-4-(dimethylamino)but-2-enoyl)isoindolin-1-yl)acetonitrile] displayed a Kinact/Kl of 2.31e+06 M⁻¹ s⁻¹.
`C=C(CN(C)C)C(=O)N1CC(CN2C[C@H]3CC(=O)N(c4cc(C(F)(F)F)cc(C)n4)[C@@H]3C(=O)N(C)c3cccc(Cl)c32)C1` [Example 297, (3aR,11aS)-6-chloro-5-((1-(2-((dimethylamino)methyl)acryloyl)azetidin-3-yl)methyl)-10-methyl-1-(6-methyl-4-(trifluoromethyl)pyridin-2-yl)-1,3a,4,5,10,11a-hexahydro-2H-benzo[b]pyrrolo[2,3-f][1,4]diazocine-2,11(3H)-dione] came in with a Kinact/Kl of 1.47e+06 M⁻¹ s⁻¹.
For `C=CC(=O)N1CC2(CN(CCN3C[C@H]4CC(=O)N(c5cc(C(F)(F)F)cc(C)n5)[C@@H]4C(=O)N(C)c4cccc(F)c43)CCN2)C1` [Example 30, (3aR,11aS)-5-(2-(2-acryloyl-2,5,8-triazaspiro[3.5]nonan-8-yl)ethyl)-6-fluoro-10-methyl-1-(6-methyl-4-(trifluoromethyl)pyridin-2-yl)-1,3a,4,5,10,11a-hexahydro-2H-benzo[b]pyrrolo[2,3-f][1,4]diazocine-2,11(3H)-dione], the Kinact/Kl turned out to be 690000 M⁻¹ s⁻¹.
In the case of `C=CC(=O)N1CC(N2CC[C@H](CN3C[C@H]4CC(=O)N(c5cc(C(F)(F)F)cc(C)n5)[C@@H]4C(=O)N(C)c4cccc(Cl)c43)[C@H](C#N)C2)C1` (single isomer, unassigned) [Example 227a] it was 230000 M⁻¹ s⁻¹; in that of `C=CC(=O)N1CC(N2CCN(CCN3C[C@H]4CC(=O)N(c5cc(C(F)(F)F)cc(C)n5)[C@@H]4C(=O)N(C)c4cccc(Cl)c43)CC2)C1` [Example 12, (3aR,11aS)-5-(2-(4-(1-acryloylazetidin-3-yl)piperazin-1-yl)ethyl)-6-chloro-10-methyl-1-(6-methyl-4-(trifluoromethyl)pyridin-2-yl)-1,3a,4,5,10,11a-hexahydro-2H-benzo[b]pyrrolo[2,3-f][1,4]diazocine-2,11(3H)-dione], 1.71e+06 M⁻¹ s⁻¹.

These data come from patent US20250230165A1, “HETEROCYCLIC COMPOUNDS FOR USE IN THE TREATMENT OF CANCER” (ARTIOS PHARMA LIMITED, priority 2021, published 2025).
